# Patent publication US10888548B2, “Anti-dandruff compositions comprising a spirofuranone lactam tetramic acid derivative” (priority 2015, dated 2021)
# Tested on: Malassezia furfur (ATCC #38593)
# Test: M. furfur efficacy assay (anti-fungal activity, Alamar blue, 96 well plates)
# Type: cell-based
# Experimental: Malassezia furfur (ATCC #38593) was cultured on Media C agar for 7 d at 37° C. Yeast colonies were then harvested into 0.9% saline sterile diH2O and diluted to approximately 1.5×10^6 CFU/mL using a 0.5 MacFarland standard (Fisher #R20410) to create an assay inoculum. Assay inoculum was added to sterile Media C broth to a final concentration of 4.5×10^4 CFU/mL. Assays were carried out in 96 well plates with a final well volume of 100 μL.
# Extract fractions and pure compounds were tested in triplicate against each organism. Extract fractions and pure compounds were resuspended in sterile 20% DMSO.
# Each plate contained eight uninoculated positive controls (media+20% DMSO), eight untreated negative controls (Media+20% DMSO+organism), and one column containing a concentration range of a ketoconazole as a control antibiotic. The assay plate was incubated at 37° C. for 5d after which growth within the wells were visualized and photographed with a UVP Biospectrum 500 imaging system. Alamar blue was then added to each well at 10% of the culture volume (11 μL in 100 μL). Fluorescence was monitored using a BioTek Synergy HT plate reader at 530/25 excitation, 590/35 emission and 35 sensitivity at both time zero and 4 hrs after Alamar blue was added. After subtracting the time zero emission 590 nm measurement from the final reading the inferred percentage of microorganism survival relative to vehicle control wells were calculated.
# Experimentation was carried out to assess the anti-fungal effect of the produced fumagillin derivative and the pseurotin A each on their own, and in combination against M. furfur in a shampoo type formulation.
# Initially the M. furfur efficacy assay was tested with both J&J Baby Shampoo as well as Head & Shoulders to establish a baseline and assess the compatibility of the assay using a shampoo. Compositions of the fumagillin derivative with and without pseurotin A were created and suspended into the baby shampoo. The shampoo mixture was then diluted out into the assay in a similar manner to Head & Shoulders, so that various dilution points in the assay represented multiple sub-inhibitory concentrations of the fumagillin derivative and pseurotin A (concentration combinations are listed in Table 1).
smiles,measurement,setting,value
"CC/C=C\[C@H](O)[C@H](O)C1=C(C)C(=O)[C@]2(O1)C(=O)N[C@@](OC)(C(=O)c1ccccc1)[C@@H]2O [Pseurotin A, pseurotin A]",IC50,"active alone, M. furfur, incubated at 37° C. for 5d",55 µg/mL
same,MIC,"active alone, M. furfur, incubated at 37° C. for 5d, listed as Pseurotin A (sample 1)",128 µg/mL
same,MIC,"active alone, M. furfur, incubated at 37° C. for 5d, listed as Pseurotin A (sample 2)",75 µg/mL
same,anti-Malassezia activity of isolated pure fractions,fraction 6 and fraction 10 of Peyronellaea sp. RKDO347 extract,demonstrated anti-Malassezia activity
